Assays:
platelets = assay: epinephrine-induced platelet aggregation; format: cell-based, human
Text: During the study, optical density was continuously recorded.

rat brain = assay: infarct volume after middle cerebral artery occlusion (MCAO); format: in vivo
Procedure: Adult male rats weighing 200-250 g were anesthetized. Focal cerebral ischemia was induced by ligature of the left common carotid artery and occlusion of the ipsilateral distal middle cerebral artery (MCAO). […] Rats subjected to sham MCAO operation served as control. To determine infarct volume, the brains were removed 48 hours after MCAO and a series of coronal brain slices were obtained and stained with 1% 2,3,5-triphenyl-tetrazolium chloride in 0.1M phosphate buffer. The infarct volume was determined by adding the infarct volumes, which were unstained by the dye.

blood vessels [1] = assay: vasodilation of blood vessels
NO production = assay: stimulation of NO production
blood vessels [2] = assay: inhibition of contraction
β-amyloid = assay: inhibition of β-amyloid
[3] = patients; cited from earlier work
[4] = cited from earlier work
human platelets [5] = assay: ADP-induced human platelet aggregation, preincubation with drug; format: cell-based; conditions: data not shown
Procedure: (§1) 500 microliter of whole blood was diluted with equal volume of 0.9% sodium chloride and prewarmed at 37° C. for 5 minutes. For optical studies, platelet rich plasma blood was mixed gently and immediately centrifuged at 180 g for 10 min to obtain platelet-rich plasma (PRP). Platelet poor plasma (PPP) was obtained by centrifugation at 1800 g for 15 minutes at room temperature. The platelet concentration in the PRP was adjusted to approximately 250×10^9 cells/l using PPP. Readings were taken at 37° C. at a stirring speed of 1200 rpm.
Aggregation agonists were used at a final concentration of 2.0×10^−5 M for ADP, 0.19 mg/ml for collagen, 500 μg/ml for arachidonic acid, and 1×10^−4 M for epinephrine. During the study, optical density was continuously recorded. The 0% and 100% aggregation levels were set with PRP and PPP, respectively. The maximal percentage of platelet aggregation was calculated as the light transmission between platelet-rich and platelet-poor plasma (100%). When a stable baseline was obtained with 450 μl of PRP, 50 μl of one of the aggregation-inducing agents was added. The maximum height and slope of the aggregation curves were determined. After the electrode was immersed in the sample, platelet aggregation to various agonists (collagen, ADP, arachidonic acid or epinephrine) was measured in ohms of impedance. […]

human platelets [6] = assay: collagen-induced human platelet aggregation, preincubation with drug; format: cell-based; conditions: 15 min preincubation; for peak aggregation: collagen (baseline around 89%)
Procedure: as §1
Aggregation agonists were used at a final concentration of 2.0×10^−5 M for ADP, 0.19 mg/ml for collagen, 500 μg/ml for arachidonic acid, and 1×10^−4 M for epinephrine. During the study, optical density was continuously recorded. The 0% and 100% aggregation levels were set with PRP and PPP, respectively. The maximal percentage of platelet aggregation was calculated as the light transmission between platelet-rich and platelet-poor plasma (100%). When a stable baseline was obtained with 450 μl of PRP, 50 μl of one of the aggregation-inducing agents was added. The maximum height and slope of the aggregation curves were determined. After the electrode was immersed in the sample, platelet aggregation to various agonists (collagen, ADP, arachidonic acid or epinephrine) was measured in ohms of impedance. The lag phase was defined as the delay time occurring between the addition of collagen and the beginning of the aggregation curve.
Blood samples were preincubated in 50 μM or 100 μM rasagiline, a MAO-B inhibitor, for 15 minutes and aggregation stimulated using collagen. […] Aggregation onset was also delayed by treatment with rasagiline.

Compound	ability to dilate blood vessels (blood vessels [1])	ability to stimulate NO production (NO production)	ability to inhibit contraction (blood vessels [2])	ability to inhibit β-amyloid (β-amyloid)	other results
C#CCN(C)[C@H](C)Cc1ccccc1 [1-deprenyl, L-deprenyl]	dilate blood vessels	stimulate NO production	inhibit contraction	inhibit β-amyloid	platelet aggregation induced by epinephrine (platelets): inhibited the platelet aggregation; blood vessel disruption and bleeding (rat brain; following 1-deprenyl administration): reduced; dose causing rapid NO-mediated endothelium-dependent vasodilation (blood vessels [1]; low doses): ≤ 10 µM; lowest concentration with stimulatory effect on NO production (NO production): 1 µM
Cl.NCCNC(=O)c1ccc(Cl)cc1 [RO-16-6491, N-(2-aminoethyl)4-chlorobenzamide hydrochloride]	dilate blood vessels	stimulate NO production	inhibit contraction	inhibit β-amyloid	
Cl.NCCNC(=O)c1ncsc1-c1cccc(F)c1 [RO-41-1049, N-(2-aminoethyl)-5-(3-fluorophenyl)-4-thiazolecarboxamide hydro-chloride]	dilate blood vessels	stimulate NO production	inhibit contraction	inhibit β-amyloid	
CC(=O)Oc1ccccc1C(=O)O [aspirin, Acetylsalicylic acid]					reduction of infarct size (rat brain; aspirin 30 mg/kg intraperitoneally 2 hours prior to MCAO, brains 48 hours after MCAO, vs untreated control): about 30%; relative risk reduction of CVD [3]: 25%
COC(=O)[C@H](c1ccccc1Cl)N1CCc2sccc2C1 [clopidogrel]					share of drug converted to active metabolites in the liver ([4]; by cytochrome P450 isoforms): 15%; share of prodrug converted into inactive metabolites ([4]; in vivo): 85%
C#CCN(C)CCCOc1ccc(Cl)cc1Cl [clorgyline]	dilate blood vessels	stimulate NO production	inhibit contraction	inhibit β-amyloid	
C#CCN(C)Cc1ccccc1 [pargyline]	dilate blood vessels	stimulate NO production	inhibit contraction	inhibit β-amyloid	
C#CCN[C@@H]1CCc2ccccc21 [rasagiline]					inhibition at 100 µM (human platelets [5]): 69%; aggregation onset (human platelets [6]; 50 μM or 100 μM, collagen): delayed; peak aggregation (human platelets [6]; 50 μM): 35%; peak aggregation (human platelets [6]; 100 μM): negligible levels
